Reference: the supplement of paper PMC7661543
± gives the standard deviation of the averaged measurements.

What follows are compounds tested on SKBR3 (assay: relative cell number vs DMSO control (72 h) (% of DMSO); higher = less growth inhibition (more cells)). Conditions: sgRNA knockout: sgNT, 1 nM.
Protocol: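 QMAP-Seq: a pool of 5 breast cancer cell lines (ZR-75-1, SKBR3, HCC-38, MDA-MB-231, BT-20), each carrying 12 doxycycline-inducible Cas9 sgRNA perturbations (11 knockouts plus non-targeting sgNT), was treated with compounds for 72 h at four 10-fold doses (10 nM-10 uM or 1 nM-1 uM range). Barcodes were amplified and sequenced, and cell number was interpolated from 293T spike-in standard curves. The result is expressed as % of the median of DMSO wells. Two biological replicates.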

Compound `CC(C)C[C@H](NC(=O)[C@H](CCc1ccccc1)NC(=O)CN1CCOCC1)C(=O)N[C@@H](Cc1ccccc1)C(=O)N[C@@H](CC(C)C)C(=O)[C@@]1(C)CO1` [Carfilzomib] has a relative cell number of 58.5 ± 9.1.

Same assay, conditions: sgRNA knockout: sgNT, 10 nM

`Cc1cnc(Nc2ccc(OCCN3CCCC3)cc2)nc1Nc1cccc(S(=O)(=O)NC(C)(C)C)c1` and `C=CCn1c(=O)c2cnc(Nc3ccc(N4CCN(C)CC4)cc3)nc2n1-c1cccc(C(C)(C)O)n1` [MK1775] are within error of each other in relative cell number: 89 ± 48 for the first, 112 ± 1.2 for the second.

First: CN(C)CC[C@H](CSc1ccccc1)Nc1ccc(S(=O)(=O)NC(=O)c2ccc(N3CCN(Cc4ccccc4-c4ccc(Cl)cc4)CC3)cc2)cc1[N+](=O)[O-] [ABT737]
Second: CCOc1ccccc1-n1c(C(C)N2CCN(C(=O)COc3ccc(Cl)cc3)CC2)nc2ccccc2c1=O (stereo not given) [Erastin]
The relative cell number of the first is lower: 84.5 ± 11 for the first, 111.3 ± 0.82 for the second.

`O=P1(N(CCCl)CCCl)NCCCO1` (stereo not given) [Cyclophosphamide] and `CCOC(=O)[C@@]1(CCCCCCOc2ccc(Cl)cc2)CO1` [Etomoxir] are within error of each other in relative cell number: 88.4 ± 22 for the first, 80.7 ± 22 for the second.

Compared with `Cc1ccc(Nc2nccc(N(C)c3ccc4c(C)n(C)nc4c3)n2)cc1S(N)(=O)=O` [Pazopanib], `CC(=O)Nc1cccc(-n2c(=O)n(C3CC3)c(=O)c3c(Nc4ccc(I)cc4F)n(C)c(=O)c(C)c32)c1` [Trametinib] is higher in relative cell number: 96.1 ± 6.7 for the first, 116 ± 3.5 for the second.

Going from `CC(C)C[C@H](NC(=O)[C@H](CCc1ccccc1)NC(=O)CN1CCOCC1)C(=O)N[C@@H](Cc1ccccc1)C(=O)N[C@@H](CC(C)C)C(=O)[C@@]1(C)CO1` [Carfilzomib] to `COC(=O)Nc1nc2cc(C(=O)c3ccccc3)ccc2[nH]1` [Mebendazole], the relative cell number rises from 33.5 ± 8.4 to 96.3 ± 10.

First: N.N.[Cl][Pt][Cl] [Cisplatin]
Second: S=c1nc[nH]c2nc[nH]c12 [6-Mercaptopurine]
The relative cell number of the first is lower: 97.5 ± 2.7 for the first, 112 ± 11 for the second.

`Cc1cc2c(C(C)C)c(O)c(O)c(C=O)c2c(O)c1-c1c(C)cc2c(C(C)C)c(O)c(O)c(C=O)c2c1O` [Gossypol] and `COc1cccc2c1C(=O)c1c(O)c3c(c(O)c1C2=O)C[C@@](O)(C(=O)CO)C[C@@H]3O[C@H]1C[C@H](N)[C@H](O)[C@H](C)O1` [Doxorubicin] are within error of each other in relative cell number: 101.3 ± 0.15 for the first, 82.6 ± 29 for the second.

`CCC(C)SSc1ncc[nH]1` (stereo not given) [PX12] and `CN1C(=O)C(Cc2c[nH]c3ccccc23)NC1=S` (stereo not given) [Necrostatin1] are within error of each other in relative cell number: 95.4 ± 14 for the first, 89.8 ± 11 for the second.

`CC(=O)Nc1nc(C)c(S(=O)(=O)Nc2ccc(C(O)(C(F)(F)F)C(F)(F)F)cc2)s1` [SR1001] and `O=C(NOCC(O)CO)c1cc(Br)c(F)c(F)c1Nc1ccc(I)cc1F` (stereo not given) are within error of each other in relative cell number: 104 ± 4.2 for the first, 118 ± 48 for the second.

Going from `CN1CCc2c(c3ccccc3n2Cc2ccc(C(=O)NO)cc2)C1` [TubastatinA] to `O=C1NC(=O)[C@@H](c2cn3c4c(cccc24)CCC3)[C@@H]1c1c[nH]c2ccccc12` [Tivantinib], the relative cell number falls from 104 ± 5.4 to 94.9 ± 2.9.

`CCn1c(=O)c2c(nc(/C=C/c3ccc(OC)c(OC)c3)n2C)n(CC)c1=O` [Istradefylline] and `COc1ccc(-c2ccc3c(N4CCOCC4)nc(N4C[C@@H](C)O[C@@H](C)C4)nc3n2)cc1CO` are within error of each other in relative cell number: 80.5 ± 18 for the first, 84.2 ± 39 for the second.

`C[C@]12CC[C@@H]3c4ccc(O)cc4C[C@@H](CCCCCCCCC[S+]([O-])CCCC(F)(F)C(F)(F)F)[C@H]3[C@@H]1CC[C@@H]2O` (stereo not given in full) [Fulvestrant] and `OCc1ccc(-c2ccc(-c3ccc(CO)s3)o2)s1` are within error of each other in relative cell number: 90.75 ± 0.73 for the first, 84.8 ± 34 for the second.

Same assay, conditions: sgRNA knockout: sgNT, 100 nM

Compared with `Cc1cnc(Nc2ccc(OCCN3CCCC3)cc2)nc1Nc1cccc(S(=O)(=O)NC(C)(C)C)c1`, `C=CCn1c(=O)c2cnc(Nc3ccc(N4CCN(C)CC4)cc3)nc2n1-c1cccc(C(C)(C)O)n1` [MK1775] is higher in relative cell number: 68.7 ± 15 for the first, 108 ± 18 for the second.

`CN(C)CC[C@H](CSc1ccccc1)Nc1ccc(S(=O)(=O)NC(=O)c2ccc(N3CCN(Cc4ccccc4-c4ccc(Cl)cc4)CC3)cc2)cc1[N+](=O)[O-]` [ABT737] and `CCOc1ccccc1-n1c(C(C)N2CCN(C(=O)COc3ccc(Cl)cc3)CC2)nc2ccccc2c1=O` (stereo not given) [Erastin] are within error of each other in relative cell number: 98.2 ± 4.7 for the first, 85.9 ± 42 for the second.

`O=P1(N(CCCl)CCCl)NCCCO1` (stereo not given) [Cyclophosphamide] and `CCOC(=O)[C@@]1(CCCCCCOc2ccc(Cl)cc2)CO1` [Etomoxir] are within error of each other in relative cell number: 86.2 ± 26 for the first, 98.3 ± 11 for the second.

`Cc1ccc(Nc2nccc(N(C)c3ccc4c(C)n(C)nc4c3)n2)cc1S(N)(=O)=O` [Pazopanib] and `CC(=O)Nc1cccc(-n2c(=O)n(C3CC3)c(=O)c3c(Nc4ccc(I)cc4F)n(C)c(=O)c(C)c32)c1` [Trametinib] are within error of each other in relative cell number: 48.9 ± 20 for the first, 72.4 ± 22 for the second.

Going from `CC(C)C[C@H](NC(=O)[C@H](CCc1ccccc1)NC(=O)CN1CCOCC1)C(=O)N[C@@H](Cc1ccccc1)C(=O)N[C@@H](CC(C)C)C(=O)[C@@]1(C)CO1` [Carfilzomib] to `COC(=O)Nc1nc2cc(C(=O)c3ccccc3)ccc2[nH]1` [Mebendazole], the relative cell number rises from 11.2 ± 8.9 to 59.8 ± 7.3.

`N.N.[Cl][Pt][Cl]` [Cisplatin] and `S=c1nc[nH]c2nc[nH]c12` [6-Mercaptopurine] are within error of each other in relative cell number: 84.6 ± 5.9 for the first, 83.1 ± 39 for the second.

Going from `Cc1cc2c(C(C)C)c(O)c(O)c(C=O)c2c(O)c1-c1c(C)cc2c(C(C)C)c(O)c(O)c(C=O)c2c1O` [Gossypol] to `COc1cccc2c1C(=O)c1c(O)c3c(c(O)c1C2=O)C[C@@](O)(C(=O)CO)C[C@@H]3O[C@H]1C[C@H](N)[C@H](O)[C@H](C)O1` [Doxorubicin], the relative cell number falls from 94.3 ± 8.1 to 34.4 ± 8.3.

`CCC(C)SSc1ncc[nH]1` (stereo not given) [PX12] and `CN1C(=O)C(Cc2c[nH]c3ccccc23)NC1=S` (stereo not given) [Necrostatin1] are within error of each other in relative cell number: 95.5 ± 65 for the first, 92.2 ± 8.2 for the second.

`CC(=O)Nc1nc(C)c(S(=O)(=O)Nc2ccc(C(O)(C(F)(F)F)C(F)(F)F)cc2)s1` [SR1001] and `O=C(NOCC(O)CO)c1cc(Br)c(F)c(F)c1Nc1ccc(I)cc1F` (stereo not given) are within error of each other in relative cell number: 87.5 ± 13 for the first, 123 ± 58 for the second.

`CN1CCc2c(c3ccccc3n2Cc2ccc(C(=O)NO)cc2)C1` [TubastatinA] and `O=C1NC(=O)[C@@H](c2cn3c4c(cccc24)CCC3)[C@@H]1c1c[nH]c2ccccc12` [Tivantinib] are within error of each other in relative cell number: 59.2 ± 14 for the first, 71.06 ± 0.6 for the second.

`CCn1c(=O)c2c(nc(/C=C/c3ccc(OC)c(OC)c3)n2C)n(CC)c1=O` [Istradefylline] and `COc1ccc(-c2ccc3c(N4CCOCC4)nc(N4C[C@@H](C)O[C@@H](C)C4)nc3n2)cc1CO` are within error of each other in relative cell number: 84.2 ± 5.3 for the first, 110 ± 26 for the second.

First: C[C@]12CC[C@@H]3c4ccc(O)cc4C[C@@H](CCCCCCCCC[S+]([O-])CCCC(F)(F)C(F)(F)F)[C@H]3[C@@H]1CC[C@@H]2O (stereo not given in full) [Fulvestrant]
Second: OCc1ccc(-c2ccc(-c3ccc(CO)s3)o2)s1
The relative cell number of the first is higher: 48.8 ± 3.3 for the first, 15.6 ± 0.84 for the second.

Same assay, conditions: sgRNA knockout: sgNT, 1000 nM

`Cc1cnc(Nc2ccc(OCCN3CCCC3)cc2)nc1Nc1cccc(S(=O)(=O)NC(C)(C)C)c1` and `Cc1ccc(Nc2nccc(N(C)c3ccc4c(C)n(C)nc4c3)n2)cc1S(N)(=O)=O` [Pazopanib] are within error of each other in relative cell number: 75.4 ± 15 for the first, 93.1 ± 34 for the second.

Going from `CN(C)CC[C@H](CSc1ccccc1)Nc1ccc(S(=O)(=O)NC(=O)c2ccc(N3CCN(Cc4ccccc4-c4ccc(Cl)cc4)CC3)cc2)cc1[N+](=O)[O-]` [ABT737] to `CC(C)C[C@H](NC(=O)[C@H](CCc1ccccc1)NC(=O)CN1CCOCC1)C(=O)N[C@@H](Cc1ccccc1)C(=O)N[C@@H](CC(C)C)C(=O)[C@@]1(C)CO1` [Carfilzomib], the relative cell number falls from 85.7 ± 9.8 to 7.64 ± 5.5.

`O=P1(N(CCCl)CCCl)NCCCO1` (stereo not given) [Cyclophosphamide] and `CCOC(=O)[C@@]1(CCCCCCOc2ccc(Cl)cc2)CO1` [Etomoxir] are within error of each other in relative cell number: 102 ± 19 for the first, 86.5 ± 40 for the second.

`N.N.[Cl][Pt][Cl]` [Cisplatin] and `CCC(C)SSc1ncc[nH]1` (stereo not given) [PX12] are within error of each other in relative cell number: 81.5 ± 8.8 for the first, 88.8 ± 31 for the second.

Compared with `Cc1cc2c(C(C)C)c(O)c(O)c(C=O)c2c(O)c1-c1c(C)cc2c(C(C)C)c(O)c(O)c(C=O)c2c1O` [Gossypol], `COc1cccc2c1C(=O)c1c(O)c3c(c(O)c1C2=O)C[C@@](O)(C(=O)CO)C[C@@H]3O[C@H]1C[C@H](N)[C@H](O)[C@H](C)O1` [Doxorubicin] is lower in relative cell number: 103 ± 7.4 for the first, 15 ± 6.8 for the second.

In the case of `CC(=O)Nc1nc(C)c(S(=O)(=O)Nc2ccc(C(O)(C(F)(F)F)C(F)(F)F)cc2)s1` [SR1001], the relative cell number is reported as 120 ± 17.
